pIC50: −log10 of the molar value. Read-outs that look alike come from different tables or passages of the source.
Tests used:
MAGL [1] = biological target: T1, MAGL (Homo sapiens, UniProt Q99685); assay: In vitro competitive activity-based protein profiling (gel-based, FP-Rh or HT-01 probe); format: biochemical
T1 construct: Proteomes (human prefrontal cortex or cell membrane fractions); from tissue
T1 sequence (Q99685 1-303): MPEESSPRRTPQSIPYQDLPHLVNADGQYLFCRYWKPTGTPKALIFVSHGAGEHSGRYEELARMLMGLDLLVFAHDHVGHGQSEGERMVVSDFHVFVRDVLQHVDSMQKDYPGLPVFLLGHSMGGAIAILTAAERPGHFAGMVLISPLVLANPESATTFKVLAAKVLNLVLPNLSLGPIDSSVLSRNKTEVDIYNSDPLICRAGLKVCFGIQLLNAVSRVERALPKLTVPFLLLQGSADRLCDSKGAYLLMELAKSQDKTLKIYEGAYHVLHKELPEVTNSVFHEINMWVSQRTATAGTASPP
Method in brief: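 Human prefrontal cortex or cell membrane proteomes (1.0 mg/mL protein) preincubated with varying inhibitor concentrations 30 min at 37° C. FP-Rh or HT-01 probe (1.0 μL of 50 μM stock) then added for 30 min at room temperature; reactions quenched with SDS loading buffer and resolved by SDS-PAGE.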

MAGL [2] = biological target: T2, MAGL (Mus musculus, UniProt O35678); assay: Mouse brain proteomes from inhibitor treated mice (oral gavage, brain proteomes analyzed 4 h after administration); format: in vivo, mouse (C57Bl/6J); details: brain proteome 4 h after administration, read-out: % Inh 5 mg/kg MGLL (Mouse)
T2 construct: from tissue; host or cells: brain of wild-type C57Bl/6J mice
T2 sequence (O35678 1-303): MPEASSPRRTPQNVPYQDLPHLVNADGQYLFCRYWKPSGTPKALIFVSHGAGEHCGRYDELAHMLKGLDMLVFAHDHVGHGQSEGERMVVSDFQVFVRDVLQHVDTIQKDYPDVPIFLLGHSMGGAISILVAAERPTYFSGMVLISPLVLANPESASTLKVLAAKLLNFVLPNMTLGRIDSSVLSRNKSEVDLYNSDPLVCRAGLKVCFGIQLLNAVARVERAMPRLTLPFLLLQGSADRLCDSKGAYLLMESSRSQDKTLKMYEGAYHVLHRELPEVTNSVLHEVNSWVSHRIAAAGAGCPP
Method: Compounds are tested to assess their MAGL and serine hydrolase activity using the following in vitro and in vivo assays.
Preparation of Mouse Brain Proteomes from Inhibitor Treated Mice.
Inhibitors were administered to wild-type C57Bl/6J by oral gavage in a vehicle of polyethylene glycol. Each animal was sacrificed 4 h following administration and brain proteomes were prepared and analyzed according to previously established methods (See Niphakis, M. J., et al. (2011) ACS Chem. Neurosci. and Long, J. Z., et al. Nat. Chem. Biol. 5:37-44).

ABHD6 = biological target: T3, ABHD6 (Mus musculus, UniProt Q8R2Y0); assay: In vitro competitive activity-based protein profiling, mouse brain proteome, ABHD6; format: biochemical; details: mouse
T3 construct: Brain; from tissue; host or cells: mouse brain proteome
T3 sequence (Q8R2Y0 1-336): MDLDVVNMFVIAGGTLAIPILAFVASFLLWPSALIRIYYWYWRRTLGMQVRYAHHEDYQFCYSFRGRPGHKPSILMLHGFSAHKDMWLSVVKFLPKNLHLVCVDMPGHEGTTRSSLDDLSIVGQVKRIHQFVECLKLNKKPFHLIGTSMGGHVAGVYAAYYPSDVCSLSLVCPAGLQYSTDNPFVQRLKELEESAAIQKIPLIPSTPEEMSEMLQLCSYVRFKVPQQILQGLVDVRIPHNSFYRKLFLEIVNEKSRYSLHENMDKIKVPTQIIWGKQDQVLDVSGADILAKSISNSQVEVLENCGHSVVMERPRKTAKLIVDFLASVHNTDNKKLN
Method: [Worded in the source for another target; this target is reported under the same test.] (§1) Proteomes (human prefrontal cortex or cell membrane fractions) (50 μL, 1.0 mg/mL total protein concentration) were preincubated with varying concentrations of inhibitors at 37° C. After 30 min, FP—Rh or HT-01 (1.0 μL, 50 μM in DMSO) was added and the mixture was incubated for another 30 min at room temperature. Reactions were quenched with SDS loading buffer (15 μL-4×) and run on SDS-PAGE.

MGLL = biological target: T4, MGLL (Mus musculus, UniProt O35678); assay: In vitro competitive activity-based protein profiling, mouse brain proteome; format: biochemical
T4 construct: Brain; from tissue; host or cells: mouse brain proteome
T4 sequence (O35678 1-303): T2 sequence (O35678 1-303)
Method: [Worded in the source for another species; this species is reported under the same test.] as §1

[3] = PC3 proteome, read-out: IC50 MGLL PC3 (Human)
[4] = PFC (prefrontal cortex) proteome
[5] = PFC (prefrontal cortex) proteome, read-out: IC50 MGLL PFC (Human)

pIC50 (MAGL [1]; [3])	% Inh MGLL PFC (Human, μM) (MAGL [1]; [4])	inhibition at 5 mg/kg (MAGL [2]) [%]	pIC50 (MAGL [1]; [5])	pIC50 (ABHD6)	pIC50 (MGLL)	Compound
> 7.00	### (### is ≥ 75%)	25 to 75				CC(C)(C#Cc1c(Cl)cccc1CN1CCCC12CCN(C(=O)OC(C(F)(F)F)C(F)(F)F)CC2)C(=O)O [Example 1, 4-(2-Chloro-6-((8-(((1,1,1,3,3,3-hexafluoropropan-2-yl)oxy)carbonyl)-1,8-diazaspiro[4.5]decan-1-yl)methyl)phenyl)-2,2-dimethylbut-3-ynoic acid]
> 7.00	### (### is ≥ 75%)	≥ 75				O=C(OC(C(F)(F)F)C(F)(F)F)N1CCC2(CCCN2Cc2cc(F)cc(C3(C(=O)O)CCCC3)c2)CC1 [Example 4, 1-(3-Fluoro-5-((8-(((1,1,1,3,3,3-hexafluoropropan-2-yl)oxy)carbonyl)-1,8-diazaspiro[4.5]decan-1-yl)methyl)phenyl)cyclopentane-1-carboxylic acid]
> 7.00		≥ 75				CC(C)(C#Cc1cc(C(F)(F)F)ccc1CN1CCCC12CCN(C(=O)OC(C(F)(F)F)C(F)(F)F)CC2)C(=O)O [Example 5, 4-(2-((8-(((1,1,1,3,3,3-Hexafluoropropan-2-yl)oxy)carbonyl)-1,8-diazaspiro[4.5]decan-1-yl)methyl)-5-(trifluoromethyl)phenyl)-2,2-dimethylbut-3-ynoic acid]
> 7.00		≥ 75				O=C(OC(C(F)(F)F)C(F)(F)F)N1CCC2(CCCN2Cc2ccc(C(F)(F)F)cc2C2(C(=O)O)CCCC2)CC1 [Example 7, 1-(2-((8-(((1,1,1,3,3,3-hexafluoropropan-2-yl)oxy)carbonyl)-1,8-diazaspiro[4.5]decan-1-yl)methyl)-5-(trifluoromethyl)phenyl)cyclopentane-1-carboxylic acid]
> 7.00	### (### is ≥ 75%)	≤ 25				CN(Cc1cccc(Cl)c1C1(C(=O)O)CCCC1)C1(C)CCN(C(=O)OC(C(F)(F)F)C(F)(F)F)CC1 [Example 9, 1-(2-Chloro-6-(((1-(((1,1,1,3,3,3-hexafluoropropan-2-yl)oxy)carbonyl)-4-methylpiperidin-4-yl)(methyl)amino)methyl)phenyl)cyclopentane-1-carboxylic acid]
	### (### is ≥ 75%)	≥ 75				O=C(O)C1CCN(Cc2cc(C(F)(F)F)ccc2C(=O)N2CCCC23CCN(C(=O)OC(C(F)(F)F)C(F)(F)F)CC3)CC1 [Example 10, 1-(2-(8-(((1,1,1,3,3,3-Hexafluoropropan-2-yl)oxy)carbonyl)-1,8-diazaspiro[4.5]decane-1-carbonyl)-5-(trifluoromethyl)benzyl)piperidine-4-carboxylic acid]
> 7.00		≥ 75				CN(Cc1ccc(C(F)(F)F)cc1N1CCC(C(=O)O)CC1)C1(C)CCN(C(=O)OC(C(F)(F)F)C(F)(F)F)CC1 [Example 14, 1-(2-(((1-(((1,1,1,3,3,3-Hexafluoropropan-2-yl)oxy)carbonyl)-4-methylpiperidin-4-yl)(methyl)amino)methyl)-5-(trifluoromethyl)phenyl)piperidine-4-carboxylic acid]
> 7.00		≤ 25				CC1(C(=O)O)CCCN(c2cc(C(F)(F)F)ccc2CN2CC3(CCN(C(=O)OC(C(F)(F)F)C(F)(F)F)CC3)C2)C1 (stereo not drawn) [Example 112, 1-(2-((7-(((1,1,1,3,3,3-Hexafluoropropan-2-yl)oxy)carbonyl)-2,7-diazaspiro[3.5]nonan-2-yl)methyl)-5-(trifluoromethyl)phenyl)-3-methylpiperidine-3-carboxylic acid]
> 7.00		25 to 75	> 7.00			CC1(C(=O)O)CCCN(c2cc(CN3CC4(CCN(C(=O)OC(C(F)(F)F)C(F)(F)F)CC4)C3)cc(C(F)(F)F)c2)C1 (stereo not drawn) [Example 114, 1-(3-((7-(((1,1,1,3,3,3-Hexafluoropropan-2-yl)oxy)carbonyl)-2,7-diazaspiro[3.5]nonan-2-yl)methyl)-5-(trifluoromethyl)phenyl)-3-methylpiperidine-3-carboxylic acid]
> 7.00		≥ 75				CN(Cc1ccc(C(F)(F)F)cc1N1CCC(C(=O)O)C1)C1(C)CCN(C(=O)OC(C(F)(F)F)C(F)(F)F)CC1 (stereo not drawn) [Example 118, 1-(2-(((1-(((1,1,1,3,3,3-Hexafluoropropan-2-yl)oxy)carbonyl)-4-methylpiperidin-4-yl)(methyl)amino)methyl)-5-(trifluoromethyl)phenyl)pyrrolidine-3-carboxylic acid]
> 7.00		≥ 75				CC1(N(CC(=O)O)Cc2ccc(C(F)(F)F)cc2N2CCOCC2)CCN(C(=O)OC(C(F)(F)F)C(F)(F)F)CC1 [Example 124, N-(1-(((1,1,1,3,3,3-Hexafluoropropan-2-yl)oxy)carbonyl)-4-methylpiperidin-4-yl)-N-(2-morpholino-4-(trifluoromethyl)benzyl)glycine]
> 7.00		≤ 25				O=C(O)CN1CC2CC1CN2c1cc(CN2CCC3(CCN(C(=O)OC(C(F)(F)F)C(F)(F)F)CC3)C2)cc(C(F)(F)F)c1 (stereo not drawn) [Example 125, 2-(5-{3-[(8-{[(1,1,1,3,3,3-Hexafluoropropan-2-yl)oxy]carbonyl}-2,8-diazaspiro[4.5]decan-2-yl)methyl]-5-(trifluoromethyl)phenyl}-2,5-diazabicyclo[2.2.1]heptan-2-yl)acetic acid]
> 7.00		≤ 25				O=C(O)CN1CC2CC1CN2c1cc(C(F)(F)F)ccc1CN1CCCC12CCN(C(=O)OC(C(F)(F)F)C(F)(F)F)CC2 (stereo not drawn) [Example 126, 2-(5-{2-[(8-{[(1,1,1,3,3,3-Hexafluoropropan-2-yl)oxy]carbonyl}-1,8-diazaspiro[4.5]decan-1-yl)methyl]-5-(trifluoromethyl)phenyl}-2,5-diazabicyclo[2.2.1]heptan-2-yl)acetic acid]
		≤ 25				O=C(O)CN1CC2CC1CN2c1cc(CN2CC3(CCN(C(=O)OC(C(F)(F)F)C(F)(F)F)CC3)C2)cc(C(F)(F)F)c1 (stereo not drawn) [Example 129, 2-(5-{3-[(7-{[(1,1,1,3,3,3-Hexafluoropropan-2-yl)oxy]carbonyl}-2,7-diazaspiro[3.5]nonan-2-yl)methyl]-5-(trifluoromethyl)phenyl}-2,5-diazabicyclo[2.2.1]heptan-2-yl)acetic acid]
> 7.00			> 7.00	< 6.00	6.00 to 7.00	O=C(O)C1CCN(c2cc(Cl)ccc2CN2CCC3(CC2)CCN(C(=O)OC(C(F)(F)F)C(F)(F)F)C3)CC1 [Example 194, 1-(5-Chloro-2-((2-(((1,1,1,3,3,3-hexafluoropropan-2-yl)oxy)carbonyl)-2,8-diazaspiro[4.5]decan-8-yl)methyl)phenyl) piperidine-4-carboxylic acid]
> 7.00			6.00 to 7.00	< 6.00	6.00 to 7.00	O=C(O)C1CCN(c2cc(C(F)(F)F)ccc2CN2CCC3(CC2)CCN(C(=O)OC(C(F)(F)F)C(F)(F)F)C3)CC1 [Example 195, 1-(2-((2-(((1,1,1,3,3,3-Hexafluoropropan-2-yl)oxy)carbonyl)-2,8-diazaspiro[4.5]decan-8-yl)methyl)-5-(trifluoromethyl)phenyl)piperidine-4-carboxylic acid]
